In US11766411B2, “Use of cannabinoids in the treatment of epilepsy” (GW Research Limited, priority 2014, dated 2023):

Tests used:
[1] = system: mice; conditions: after administration of pro-convulsant drugs or an electric current; cited from earlier work
[2] = system: children and young adults with treatment-resistant Dravet syndrome; assay: Expanded access compassionate use program, Dravet syndrome sub-group; format: in vivo, human
Description: (§1) Twenty-seven children and young adults with severe, childhood onset treatment-resistant epilepsy (TRE) were tested with a highly purified extract of cannabidiol (CBD) obtained from a cannabis plant. The participants in the study were part of an expanded access compassionate use program for CBD.
(§2) All patients entered a baseline period of 4 weeks when parents/caregivers kept prospective seizure diaries, noting all countable motor seizure types.
(§3) The patients then received a highly purified CBD extract (greater than 98% CBD w/w) in sesame oil, of known and constant composition, at a dose of 5 mg/kg/day in addition to their baseline anti-epileptic drug (AED) regimen.
(§4) Laboratory testing for hematologic, liver, kidney function, and concomitant AED levels was performed at baseline, and after 4, 8 and 12 weeks of CBD therapy.
Nine children and young adults with treatment-resistant Dravet syndrome were part of an expanded access compassionate use program for highly purified CBD extract as described in Example 1.

[3] = system: children and young adults with treatment-resistant myoclonic absence seizures; assay: Expanded access compassionate use program, myoclonic absence seizures sub-group; format: in vivo, human
Description: as §1, §2, §3, §4
Four children and young adults with treatment-resistant myoclonic absence seizures were part of an expanded access compassionate use program for highly purified CBD extract as described in Example 1.

[4] = system: adult patients; conditions: 200 mg/day of pure CBD, four adult patients; cited from earlier work
[5] = system: institutionalized adult patients; conditions: 200 mg/day of pure CBD, twelve institutionalized adult patients, open label; cited from earlier work
[6] = system: children and young adults with severe, childhood onset treatment-resistant epilepsy (TRE); assay: Expanded access compassionate use program of highly purified CBD extract added to baseline AED regimen; seizure diaries; format: in vivo, human
Description: as §1, §2, §3, §4

[7] = 9 Dravet subjects, 3-month treatment period
[8] = Dravet patients (n = 9), after 3 months of therapy
[9] = 4 MAS subjects, 3-month treatment period
[10] = MAS patients (n = 4), after 3 months of therapy
[11] = 27 subjects, 3-month treatment period
[12] = All patients (excluding Dravet, MAS and FIRES) (n = 13), after 12 weeks of treatment
[13] = All patients excluding Dravet patients (n = 18), after 3 months
[14] = All patients excluding MAS patients (n = 23), after 3 months
[15] = co-treatment of CBD with clobazam

## C=C(C)[C@@H]1CCC(C)=C[C@H]1c1c(O)cc(CCCCC)cc1O [CBD, Cannabidiol]
[1]
  prevention of seizures: able to prevent seizures
[2]; [7]
  Common adverse events: somnolence, fatigue, decreased appetite, increased appetite and diarrhoea
  adverse events: mild and well tolerated
  subjects who withdrew during the treatment period: None
[2]; [8]
  Responder rate (>50% reduction) [%]: 56%
  Responder rate (>50% reduction), number of patients: 5
  Responder rate (>70% reduction) [%]: 44%
  Responder rate (>70% reduction), number of patients: 4
  Responder rate (>90% reduction), number of patients: 3
  Seizure free [%]: 22%
  Seizure free, number of patients: 2
[3]; [9]
  Common adverse events: somnolence, fatigue, decreased appetite, increased appetite and diarrhoea
  adverse events: mild and well tolerated
  subjects who withdrew during the treatment period: None
[3]; [10]
  Responder rate (>50% reduction), number of patients: 2
  Responder rate (>70% reduction) [%]: 50%
  Responder rate (>70% reduction), number of patients: 2
  Responder rate (>90% reduction) [%]: 25%
  Seizure free, number of patients: 0
[4]
  patients who became seizure free: two
[5]
  controlling seizures: ineffective
[6]; [11]
  Common adverse events: somnolence, fatigue, decreased appetite, increased appetite and diarrhoea
  adverse events: mild and well tolerated
  subjects who withdrew during the treatment period: None
[6]; [12]
  Responder rate (>50% reduction) [%]: 38%
  Responder rate (>50% reduction), number of patients: 5
  Responder rate (>70% reduction) [%]: 31%
  Responder rate (>70% reduction), number of patients: 4
  Responder rate (>90% reduction) [%]: 8%
  Responder rate (>90% reduction), number of patients: 1
  Seizure free, number of patients: 0
[6]; All patients (n = 27), Month 3
  Responder rate (>50% reduction) [%]: 48%
  Responder rate (>50% reduction), number of patients: 13
  Responder rate (>70% reduction) [%]: 41%
  Responder rate (>70% reduction), number of patients: 11
  Responder rate (>90% reduction) [%]: 22%
  Responder rate (>90% reduction), number of patients: 6
  Seizure free [%]: 7%
[6]; [13]
  Responder rate (>50% reduction) [%]: 44%
  Responder rate (>50% reduction), number of patients: 8
  Responder rate (>70% reduction) [%]: 39%
  Responder rate (>70% reduction), number of patients: 7
  Responder rate (>90% reduction) [%]: 17%
  Responder rate (>90% reduction), number of patients: 3
  Seizure free, number of patients: 0
[6]; [14]
  Responder rate (>50% reduction) [%]: 48%
  Responder rate (>50% reduction), number of patients: 11
  Responder rate (>70% reduction) [%]: 39%
  Responder rate (>70% reduction), number of patients: 9
  Responder rate (>90% reduction) [%]: 22%
  Responder rate (>90% reduction), number of patients: 5
  Seizure free [%]: 9%
  Seizure free, number of patients: 2
[6]; [15]
  odds ratio (OR) for positive treatment response (greater than 50% responder rate), convulsive seizures: 1.9
  odds ratio (OR) for positive treatment response (greater than 50% responder rate), total seizure reduction: 3.3
[6]; doses up to 25 mg/kg/day
  tolerability: generally well-tolerated
